Experimental data reported in ChEMBL document CHEMBL4270567, “Multi-target-directed ligands for treating Alzheimer's disease: Butyrylcholinesterase inhibitors displaying antioxidant and neuroprotective activities” (Eur J Med Chem, 2018).
Calls of active or inactive are those of the source. The calls are words filed in the database; no cut-off is given here.

Legend:
Cholinesterase [1] = molecular target: T1, Cholinesterase (Homo sapiens, UniProt P06276)
Description: Inhibition of human BChE using butyrylthiocholine iodide as substrate preincubated for 5 mins followed by substrate addition and measured for 1 min by Ellman's assay

[2] = molecular target: Acetylcholinesterase (AChE) (Homo sapiens, UniProt P22303); experiment: in vitro; details: human AChE enzyme, probe acetylthiocholine iodide
Chain of Acetylcholinesterase (AChE) (P22303 whole entry): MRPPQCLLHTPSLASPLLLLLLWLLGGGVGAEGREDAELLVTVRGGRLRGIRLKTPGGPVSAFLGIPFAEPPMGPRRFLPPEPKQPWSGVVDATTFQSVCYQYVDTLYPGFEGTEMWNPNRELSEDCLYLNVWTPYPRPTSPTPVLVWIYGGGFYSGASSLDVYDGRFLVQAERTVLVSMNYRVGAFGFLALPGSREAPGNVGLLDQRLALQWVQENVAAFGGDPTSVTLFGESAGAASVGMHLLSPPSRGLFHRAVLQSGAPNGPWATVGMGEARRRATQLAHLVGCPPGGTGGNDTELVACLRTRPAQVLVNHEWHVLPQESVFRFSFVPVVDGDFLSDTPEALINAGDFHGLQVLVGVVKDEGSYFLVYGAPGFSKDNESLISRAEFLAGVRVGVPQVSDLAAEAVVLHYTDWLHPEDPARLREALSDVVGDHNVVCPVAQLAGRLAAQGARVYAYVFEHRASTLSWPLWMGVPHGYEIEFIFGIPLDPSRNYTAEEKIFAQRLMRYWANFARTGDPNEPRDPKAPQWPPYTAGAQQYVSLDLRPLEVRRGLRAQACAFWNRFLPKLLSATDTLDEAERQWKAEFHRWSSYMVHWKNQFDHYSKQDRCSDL
Description: Inhibition of human AChE using acetylthiocholine iodide as substrate assessed as residual activity at 10 uM preincubated for 5 mins followed by substrate addition and measured for 1 min by Ellman's assay relative to control

Cholinesterase [3] = molecular target: T1, Cholinesterase; experiment: Inhibition of human recombinant BChE using butyrylthiocholine as substrate preincubated for 300 secs followed by substrate addition and measured for 1 min by Ellman's assay
[4] = Binding affinity to Cu2+ assessed as decrease in hydroxyl radical formation at 40 uM by CCA ascorbate assay
SH-SY5Y [5] = experiment: Neuroprotection activity against amyloid beta (1 to 42)-induced toxicity in human SH-SY5Y cells at 1 uM preincubated with amyloid beta (1 to 42) for 24 hrs followed by cell addition and measured after 48 hrs by MTS assay; type: functional, cell-based
[6] = Metal chelating activity of the compound assessed as Cu2+-compound complex formation at 30 uM after 5 mins by UV-vis spectrophotometric analysis
[7] = Permeability across basolateral to apical side in human Caco2 cells at 100 uM after 20 mins by HPLC-UV analysis; type: ADME, cell-based; details: Caco-2
[8] = Metal chelating activity of the compound assessed as Al3+-compound complex formation at 30 uM after 5 mins by UV-vis spectrophotometric analysis
[9] = Metal chelating activity of the compound assessed as Mn2+-compound complex formation at 30 uM after 5 mins by UV-vis spectrophotometric analysis
[10] = Cytotoxicity against human SH-SY5Y cells after 48 hrs by MTS assay; type: cell-based; details: read-out: LD50
[11] = Metal chelating activity of the compound assessed as Co2+-compound complex formation at 30 uM after 5 mins by UV-vis spectrophotometric analysis
[12] = Permeability across apical to basolateral side in human Caco2 cells at 100 uM after 20 mins by HPLC-UV analysis; type: ADME, cell-based; details: Caco-2
[13] = Metal chelating activity of the compound assessed as Mg2+-compound complex formation at 30 uM after 5 mins by UV-vis spectrophotometric analysis
[14] = Metal chelating activity of the compound assessed as Ca2+-compound complex formation at 30 uM after 5 mins by UV-vis spectrophotometric analysis
SH-SY5Y [15] = experiment: Inhibition of H2O2-induced ROS generation in human SH-SY5Y cells at 5 uM preincubated for 30 mins followed by H2O2 addition and measured after 90 mins by DCFH-DA staining-based fluorescence assay; type: functional, cell-based
[16] = Metal chelating activity of the compound assessed as Fe2+-compound complex formation at 30 uM after 5 mins by UV-vis spectrophotometric analysis
[17] = Metal chelating activity of the compound assessed as Ni2+-compound complex formation at 30 uM after 5 mins by UV-vis spectrophotometric analysis
[18] = Metal chelating activity of the compound assessed as Zn2+-compound complex formation at 30 uM after 5 mins by UV-vis spectrophotometric analysis
human recombinant BChE = experiment: Selectivity index, ratio of LD50 for human SH-SY5Y cells to IC50 for human recombinant BChE; type: toxicity; details: read-out: Ratio LD50/IC50
Cholinesterase [19] = molecular target: T1, Cholinesterase; experiment: Competitive inhibition of human BChE using butyrylthiocholine iodide as substrate preincubated for 5 mins followed by substrate addition and measured for 1 min by Lineweaver Burk plot analysis
[20] = Efflux ratio of permeability from basolateral to apical over apical to basolateral side in human Caco2 cells at 100 uM after 20 mins by HPLC-UV analysis; type: ADME, cell-based; details: Caco-2

T1 sequence (P06276 whole entry): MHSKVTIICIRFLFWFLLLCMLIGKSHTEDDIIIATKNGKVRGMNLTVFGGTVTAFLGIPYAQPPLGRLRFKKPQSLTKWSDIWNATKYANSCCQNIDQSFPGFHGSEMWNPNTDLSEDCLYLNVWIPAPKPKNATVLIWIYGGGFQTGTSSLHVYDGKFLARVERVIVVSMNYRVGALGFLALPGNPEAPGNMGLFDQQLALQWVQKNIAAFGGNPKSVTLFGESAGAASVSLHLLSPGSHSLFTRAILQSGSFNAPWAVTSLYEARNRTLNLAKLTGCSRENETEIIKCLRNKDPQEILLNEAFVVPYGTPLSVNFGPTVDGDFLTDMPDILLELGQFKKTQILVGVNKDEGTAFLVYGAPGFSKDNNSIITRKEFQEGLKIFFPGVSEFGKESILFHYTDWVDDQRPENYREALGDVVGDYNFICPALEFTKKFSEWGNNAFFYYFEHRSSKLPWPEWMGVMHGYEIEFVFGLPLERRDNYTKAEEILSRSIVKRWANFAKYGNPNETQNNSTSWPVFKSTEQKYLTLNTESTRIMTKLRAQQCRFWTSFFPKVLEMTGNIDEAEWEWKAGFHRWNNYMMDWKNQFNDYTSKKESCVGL

Row | SMILES | IC50 (Cholinesterase [1]) [nM] | activity at 1 min, 10 µM [2] [%] | also measured
1 | CN(C)CCN(CC1CCCN(C2Cc3ccccc3C2)C1)C(=O)c1cc2ccccc2oc1=O (racemic) | 9.5 | > 80 | 
2 | CC(=O)NC1=NN(C(C)=O)C(C)(c2ccccc2)S1 (centres undefined) |  |  | IC50 (Cholinesterase [3]): 4.9 nM
3 | CN(C)CCN(CC1CCCN(Cc2ccc3cccc(O)c3n2)C1)C(=O)c1ccc2ccccc2c1 (racemic) | 48.1 | > 80 | 
4 | CN(C)CCN(CC1CCCN(C2Cc3ccccc3C2)C1)C(=O)c1ccc2c([N+](=O)[O-])ccc(O)c2n1 (racemic) | 1610 | > 80 | 
5 | COc1ccc(C(=O)N(CCN(C)C)CC2CCCN(C3Cc4ccccc4C3)C2)cc1 (racemic) | 237 | > 80 | 
6 | CN(C)CCN(CC1CCCN(C2Cc3ccccc3C2)C1)C(=O)c1ccc(O)cc1 (racemic) | 1790 | > 80 | 
7 | Oc1cccc2cccnc12 |  |  | Activity [4]: Active
8 | COCCN(CC1CCCN(C2Cc3ccccc3C2)C1)C(=O)c1ccc2cccnc2c1O (racemic) | 266 | > 80 | 
9 | CN(C)CCN(CC1CCCN(C2Cc3ccccc3C2)C1)C(=O)c1cc(O)c2cccc(O)c2n1 (racemic) | 19 | > 80 | 
10 | CN(C)CCN(CC1CCCN(C2Cc3ccccc3C2)C1)C(=O)/C=C/c1ccc(O)cc1 (racemic) | 71 | > 80 | 
11 | CN(C)CCN(CC1CCCN(C2Cc3ccccc3C2)C1)C(=O)c1cccc(O)c1 (racemic) | 2490 | > 80 | 
12 | CN(C)CCN(CC1CCCN(C2Cc3ccccc3C2)C1)C(=O)c1csc(Nc2ccccn2)n1 (racemic) | 635 | > 80 | 
13 | CN(C)CCN(CC1CCCN(Cc2csc(Nc3ccccn3)n2)C1)C(=O)c1ccc2ccccc2c1 (racemic) | 103 | > 80 | 
14 | CN(C)CCN(CC1CCCN(C2Cc3ccccc3C2)C1)C(=O)c1ccc(O)nc1 (racemic) | 21000 | > 80 | 
15 | CN(C)CCN(CC1CCCN(C2Cc3ccccc3C2)C1)C(=O)[C@@H]1N=C(c2ccccc2O)CS1 (mixture of isomers) | 229 | 72.9 | 
16 | CN(C)CCN(CC1CCCN(C2Cc3ccccc3C2)C1)C(=O)c1ccc(O)cc1O (racemic) | 460 | > 80 | 
17 | CN(C)CCN(CC1CCCN(C2Cc3ccccc3C2)C1)C(=O)c1cc([N+](=O)[O-])c2cccnc2c1O (racemic) | 28 | > 80 | 
18 | Cc1c(C)c2c(c(C)c1O)CCC(C)(C(=O)N(CCN(C)C)CC1CCCN(C3Cc4ccccc4C3)C1)O2 (racemic) | 6920 | > 80 | 
19 | CN(C)CCN(CC1CCCN(C2Cc3ccccc3C2)C1)C(=O)c1ccc2cccnc2c1O (racemic) |  | > 80 | Activity (SH-SY5Y [5]): inactive; Activity [6]: Active; Papp B→A at 20 min, 100 µM [7]: 22.8 ×10⁻⁶ cm/s; Activity [8]: Active; Activity [9]: Active; CC50 at 48 h [10]: 9550 nM; Activity [11]: Active; Papp A→B at 20 min, 100 µM [12]: 15.1 ×10⁻⁶ cm/s; Activity [13]: Active; Activity [14]: Active; inhibition (SH-SY5Y [15]): Active; Activity [16]: Active; Activity [4]: Active; Activity [17]: Active; Activity [18]: Active
20 | CN(C)CCN(CC1CCCN(C2Cc3ccccc3C2)C1)C(=O)c1cn2cccc(O)c2n1 (racemic) | 135 | > 80 | 
21 | CN(C)CCN(CC1CCCN(C2Cc3ccccc3C2)C1)C(=O)c1ccc2cccc(O)c2n1 (racemic) | 11.1 | 75.8 | Activity (SH-SY5Y [5]): Active; Activity [6]: Active; Papp B→A at 20 min, 100 µM [7]: 35.1 ×10⁻⁶ cm/s; Activity [8]: Active; selectivity ratio (human recombinant BChE): > 700; CC50 at 48 h [10]: 9700 nM; Ki (Cholinesterase [19]): 1.09 nM; efflux ratio at 20 min, 100 µM [20]: 1.6; Activity [11]: Active; Papp A→B at 20 min, 100 µM [12]: 21.5 ×10⁻⁶ cm/s; inhibition (SH-SY5Y [15]): Active; Activity [16]: Active; Activity [4]: Active; Activity [17]: Active; Activity [18]: Active
